Consider five compounds from ChEMBL document CHEMBL1122370 (J Med Chem, 1983).

Assay [1] deals with L1210. The assay is described as follows: In vivo antitumor activity against L1210 leukemia in 5 mice measured as median survival range at 20 mg/kg; Value ranges from(12-13). Format: functional, Mus musculus.
Assay [2] relates to L1210. The assay is described as follows: In vivo antitumor activity against L1210 leukemia in 15 mice measured as T/C values(days); T/C = 15/9. In kind it is functional, Mus musculus.
Assay [3] deals with L1210. Briefly: In vivo antitumor activity against L1210 leukemia in 18 mice measured as T/C values(days); T/C = 18/9. Format: functional, Mus musculus.
Assay [4] relates to L1210. The assay is described as follows: In vivo antitumor activity against L1210 leukemia in 5 mice measured as Increased life span at 20 mg/kg. Format: functional. As to conditions: Mus musculus.
Assay [5] relates to L1210. The assay is described as follows: In vivo antitumor activity against L1210 leukemia in 5 mice measured as Increased life span at 40 mg/kg. Format: functional. Conditions: Mus musculus.
For assay [6], the system named is L1210. The assay is described as follows: In vivo antitumor activity against L1210 leukemia in 5 mice measured as Increased life span at 80 mg/kg. As to conditions: Mus musculus. In kind it is functional.
Assay [7] concerns L1210. The assay is described as follows: In vivo antitumor activity against L1210 leukemia in 13 mice measured as T/C values(days); T/C = 13/9. In kind it is functional, Mus musculus.
Assay [8] has as its system L1210. The assay is described as follows: In vivo antitumor activity against L1210 leukemia in 5 mice measured as median survival range at 80 mg/kg; Value ranges from(13-26). In kind it is functional, Mus musculus.
For assay [9], the system named is L1210. Briefly: In vivo antitumor activity against L1210 leukemia in 5 mice measured as median survival range at 40 mg/kg; Value ranges from(13-19). Format: functional, Mus musculus.
For assay [10], the system named is Mus musculus. The assay is described as follows: Average weight of the mouse after treating with 80 mg/kg dose for 1 day. Format: functional. Details: unit not given here.
Assay [11] has as its system Mus musculus. Briefly: Average weight of the mouse after treating with 20 mg/kg dose for 1 day. Format: functional. Details: unit not given here.
The subject of assay [12] is Mus musculus. Briefly: Average weight of the mouse after treating with 40 mg/kg dose for 1 day. Format: functional. Details: unit not given here.
Assay [13] has as its system Mus musculus. The assay is described as follows: Average weight of the mouse after treating with 20 mg/kg dose for 7 days. Format: functional. Details: unit not given beside the values.
The test system of assay [14] is Mus musculus. Briefly: Average weight of the mouse after treating with 80 mg/kg dose for 7 days. Format: functional. Details: unit not given beside the values.
For assay [15], the system named is Mus musculus. The assay is described as follows: Average weight of the mouse after treating with 40 mg/kg dose for 7 days. Format: functional. Details: unit not given beside the values.
Assay [16] deals with L1210. The assay is described as follows: In vivo antitumor activity against L1210 leukemia in 5 mice measured as median survival range at 40 mg/kg; Value ranges from (12-20). Format: functional, Mus musculus.
In assay [17] the test system is L1210. The assay is described as follows: In vivo antitumor activity against L1210 leukemia in 5 mice measured as median survival range at 20 mg/kg; Value ranges from (11-15). Format: functional, Mus musculus.
Assay [18] concerns L1210. The assay is described as follows: In vivo antitumor activity against L1210 leukemia in 13 mice measured as T/C values; T/C = 13/9. Format: functional, Mus musculus.
The subject of assay [19] is L1210. The assay is described as follows: In vivo antitumor activity against L1210 leukemia in 14 mice measured as T/C values; T/C = 14/9. In kind it is functional, Mus musculus.
Assay [20] relates to Mus musculus. Briefly: Average weight change in mouse after treating with 20 mg/kg dose for 7 days. In kind it is functional. Details: unit not given beside the values.
The test system of assay [21] is Mus musculus. The assay is described as follows: Average weight change in mouse after treating with 40 mg/kg dose for 7 days. In kind it is functional.
For assay [22], the system named is L1210. The assay is described as follows: In vivo antitumor activity against L1210 leukemia in 5 mice measured as median survival range at 40 mg/kg; Value ranges from (16-19). Format: functional, Mus musculus.
Assay [23] relates to L1210. Briefly: In vivo antitumor activity against L1210 leukemia in 5 mice measured as median survival range at 20 mg/kg; Value ranges from (11-17). Format: functional, Mus musculus.
Assay [24] concerns L1210. The assay is described as follows: In vivo anti tumor activity against L1210 leukemia in 5 mice measured as Increased life span at 20 mg/kg. Format: functional. Conditions: Mus musculus.
For assay [25], the system named is L1210. The assay is described as follows: In vivo anti tumor activity against L1210 leukemia in 5 mice measured as Increased life span at 40 mg/kg. As to conditions: Mus musculus. In kind it is functional.
In assay [26] the test system is L1210. Briefly: In vivo anti tumor activity against L1210 leukemia in 19 mice measured as T/C values; T/C = 19/9. In kind it is functional, Mus musculus.
In assay [27] the test system is L1210. The assay is described as follows: In vivo anti tumor activity against L1210 leukemia in 13 mice measured as T/C values at 20 mg/kg; T/C = 13/9. In kind it is functional, Mus musculus.
The subject of assay [28] is L1210. Briefly: In vivo anti tumor activity against L1210 leukemia in 10 mice measured as median survival range at 60 mg/kg; Value ranges from(7-24). In kind it is functional, Mus musculus.
The subject of assay [29] is L1210. Briefly: In vivo antitumor activity against L1210 leukemia in 10 mice measured as median survival range at 15 mg/kg; Value ranges from(15-20). Format: functional, Mus musculus.
The subject of assay [30] is L1210. Briefly: In vivo antitumor activity against L1210 leukemia in 16 mice measured as T/C values; T/C = 16/9. Format: functional, Mus musculus.
Assay [31] concerns L1210. The assay is described as follows: In vivo anti tumor activity against L1210 leukemia in 5 mice measured as Increased life span. Format: functional, Mus musculus.
The subject of assay [32] is L1210. The assay is described as follows: In vivo anti tumor activity against L1210 leukemia in 10 mice measured as median survival range at 30 mg/kg; Value ranges from(11-17). Format: functional, Mus musculus.
Assay [33] concerns L1210. Briefly: In vivo anti tumor activity against L1210 leukemia in 10 mice measured as Increased life span at 30 mg/kg. Conditions: Mus musculus. In kind it is functional.
Assay [34] deals with L1210. Briefly: In vivo anti tumor activity against L1210 leukemia in 10 mice measured as Increased life span at 60 mg/kg. Conditions: Mus musculus. Format: functional.
For assay [35], the system named is Mus musculus. The assay is described as follows: Average weight of the mouse after treating with 15 mg/kg dose for 1 day. Format: functional.
The test system of assay [36] is Mus musculus. The assay is described as follows: Average weight of the mouse after treating with 30 mg/kg dose for 1 day. Format: functional.
The subject of assay [37] is Mus musculus. Briefly: Average weight of the mouse after treating with 60 mg/kg dose for 1 day. In kind it is functional.
For assay [38], the system named is Mus musculus. Briefly: Average weight of the mouse after treating with 15 mg/kg dose for 7 days. In kind it is functional.
Assay [39] has as its system Mus musculus. Briefly: Average weight of the mouse after treating with 60 mg/kg dose for 7 days. Format: functional.
Assay [40] deals with Mus musculus. The assay is described as follows: Average weight of the mouse after treating with 30 mg/kg dose for 7 days. Format: functional.
Assay [41] has as its system L1210. Briefly: In vivo antitumor activity against L1210 leukemia in 19 mice measured as median survival range at 15 mg/kg; Value ranges from(13-22). Format: functional, Mus musculus.
The test system of assay [42] is L1210. The assay is described as follows: In vivo antitumor activity against L1210 leukemia in 16 mice measured as T/C values(days); T/C = 16/9. Format: functional, Mus musculus.
Assay [43] relates to L1210. Briefly: In vivo antitumor activity against L1210 leukemia in 17 mice measured as T/C values(days); T/C = 17/9. Format: functional, Mus musculus.
Assay [44] concerns L1210. The assay is described as follows: (§1) In vivo antitumor activity against L1210 leukemia in 19 mice measured as Increased life span. Format: functional, Mus musculus.
The test system of assay [45] is L1210. Described as §1. In kind it is functional, Mus musculus. The source holds these as a separate data set.
In assay [46] the test system is L1210. The assay is described as follows: In vivo antitumor activity against L1210 leukemia in 23 mice measured as Increased life span. Format: functional, Mus musculus.
In assay [47] the test system is L1210. Briefly: In vivo anti tumor activity against L1210 leukemia in 19 mice measured as median survival range at 60 mg/kg; Value ranges from(9-28). Format: functional, Mus musculus.
Assay [48] has as its system L1210. The assay is described as follows: In vivo anti tumor activity against L1210 leukemia in 23 mice measured as median survival range at 30 mg/kg; Value ranges from(14-23). Format: functional, Mus musculus.

On to `CC(C)CCOC(=O)CCC(NC(=O)c1cc(Cl)c(N(C)Cc2cnc3nc(N)nc(N)c3n2)c(Cl)c1)C(=O)OCCC(C)C` (stereo not given), for which the results for the Range in the assay on L1210 [1], with L1210 [8] and in the assay with L1210 [9] were 13, 26 and 19, respectively. Further, the T/C with L1210 [2], with L1210 [3] and in the assay with L1210 [7] was 9 throughout. In addition, the ILS (in general, the gain in survival time of treated over control animals, in per cent) at 20 mg/kg in the assay with L1210 [4] stood at 44%. In the assay on L1210 [5], this compound had an ILS at 40 mg/kg of 67%. The compound also registered an ILS at 80 mg/kg in the assay with L1210 [6] of 100%. Moreover, the results for the Average weight with Mus musculus [10], with Mus musculus [11] and with Mus musculus [12] were 20.8, 22.1 and 21.2, respectively. The Weight change in the assay with Mus musculus [13] came out at 2.7; in the assay with Mus musculus [14] it was 1; in the assay on Mus musculus [15], 0.1.

As for `CCOCCOC(=O)CCC(NC(=O)c1ccc(N(C)Cc2cnc3nc(N)nc(N)c3n2)cc1)C(=O)OCCOCC` (stereo not given), the Range in the assay on L1210 [16] is reported as 20; in the assay on L1210 [17] it was 15. In addition, the T/C in the assay with L1210 [18] and in the assay with L1210 [19] was 9 in each case. In the assay on L1210 [4], this compound returned an ILS at 20 mg/kg of 44%. The compound further showed an ILS at 40 mg/kg with L1210 [5] of 55%. For the same compound, the Average weight with Mus musculus [11] turned out to be 22.6; in the assay on Mus musculus [12] it was 23.1. Moreover, the values for the Weight change with Mus musculus [20] and in the assay on Mus musculus [21] were 1.5 and 0.5, respectively.

In the case of `CCCOC(=O)CCC(NC(=O)c1ccc(N(C)Cc2cnc3nc(N)nc(N)c3n2)cc1)C(=O)OCCC` (stereo not given), the Range worked out at 16 in the assay on L1210 [22] and 17 in the assay with L1210 [23]. For the same compound, the ILS at 20 mg/kg with L1210 [24] amounted to 44%. In addition, in the assay with L1210 [25], the ILS at 40 mg/kg stood at 100%. The T/C in the assay on L1210 [26] is recorded as 19; in the assay on L1210 [27] it was 13. Further, the Average weight with Mus musculus [11] is listed as 21.4; in the assay with Mus musculus [12], 21.1. In addition, the Weight change in the assay with Mus musculus [20] came to 2.1; in the assay with Mus musculus [21], 0.3.

For the compound `CCCCOC(=O)CCC(NC(=O)c1ccc(N(C)Cc2cnc3nc(N)nc(N)c3n2)cc1)C(=O)OCCCC` (stereo not given), the Range is reported as 24 in the assay with L1210 [28], 20 in the assay with L1210 [29] and 17 in the assay with L1210 [32]. For the same compound, in the assay with L1210 [30], the T/C is 9. Moreover, the ILS with L1210 [31] came out at 77%. Further, the ILS at 30 mg/kg in the assay with L1210 [33] came out at 66%. This compound registered an ILS at 60 mg/kg with L1210 [34] of 88%. Moreover, the values for the Average weight in the assay with Mus musculus [35], in the assay with Mus musculus [36] and in the assay with Mus musculus [37] were 25.3, 26.1 and 24.9, respectively. The Weight change in the assay on Mus musculus [38] is listed as 4.2; in the assay with Mus musculus [39] it was 5.1; in the assay on Mus musculus [40], 4.1.

Regarding `CN(Cc1cnc2nc(N)nc(N)c2n1)c1ccc(C(=O)N[C@@H](CCC(=O)O)C(=O)O)cc1` [METHOTREXATE], the figures for the Range in the assay with L1210 [41], in the assay on L1210 [47] and with L1210 [48] were 22, 28 and 23, respectively. In addition, the T/C with L1210 [42], in the assay on L1210 [43] and with L1210 [3] was 9 throughout. In addition, the ILS with L1210 [44] turned out to be 77%; in the assay with L1210 [45] it was 100%; in the assay on L1210 [46], 88%. The values for the Weight change in the assay on Mus musculus [38], in the assay with Mus musculus [39] and in the assay on Mus musculus [40] were 2.1, 1.3 and 0.6, respectively.
